Reference: ChEMBL document CHEMBL3396989, “Discovery of hydroxyaniline amides as selective Extracellular Regulated Kinase (Erk) inhibitors” (Bioorg Med Chem Lett, 2015)

Assays:
[1] = target: T1, Mitogen-activated protein kinase 1 (Homo sapiens, UniProt P28482); assay: Binding affinity to non-phosphorylated Erk2 (unknown origin) by TdF assay
[2] = target: T1, Mitogen-activated protein kinase 1; assay: Binding affinity to activated Erk2 (unknown origin) by TdF assay
[3] = target: T1, Mitogen-activated protein kinase 1; assay: ATP competitive inhibition of activated Erk2 (unknown origin) by biochemical assay
[4] = target: T1, Mitogen-activated protein kinase 1; assay: Inhibition of activated Erk2 (unknown origin) by biochemical assay
[5] = target: T1, Mitogen-activated protein kinase 1; assay: Inhibition of non-activated Erk2 (unknown origin) using activating Mek1 and peptide substrate by coupled Erk2 assay

T1 sequence (P28482 whole entry): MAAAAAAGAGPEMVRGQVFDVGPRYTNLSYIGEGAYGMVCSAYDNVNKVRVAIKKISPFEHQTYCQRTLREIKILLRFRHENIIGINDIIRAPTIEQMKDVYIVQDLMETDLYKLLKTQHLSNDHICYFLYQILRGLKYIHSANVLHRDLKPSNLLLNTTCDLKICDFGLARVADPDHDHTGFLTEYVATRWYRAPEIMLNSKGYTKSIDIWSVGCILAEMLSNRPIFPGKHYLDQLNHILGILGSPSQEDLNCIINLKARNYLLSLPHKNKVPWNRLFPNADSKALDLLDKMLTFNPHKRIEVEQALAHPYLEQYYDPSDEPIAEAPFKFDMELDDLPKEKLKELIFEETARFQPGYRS

SMILES	IC50 ([4]; read-out: IC50) [nM]	IC50 [5] [nM]	also measured
CC(=O)c1ccc(N2CCN(C(=O)CN3CCC(C(=O)Nc4ccc(O)cc4)C3)CC2)cc1 (stereo not drawn)			Kd [1]: 1060 nM; Kd [2]: 1900 nM; IC50 [3]: 15200 nM
O=C(Nc1ccc(O)c(Cl)c1)[C@@H]1CCN(CC(=O)N2CCN(c3ccc(-c4ccc(F)cc4)cc3)CC2)C1	100000	19000	
O=C(Nc1ccc(O)c(Cl)c1)[C@@H]1CCN(CC(=O)N2CCN(c3ccc(-c4cccc(F)c4)cc3)CC2)C1		2200	IC50 [4]: Not Active
O=C(Nc1ccc(O)c(Cl)c1)[C@@H]1CCN(CC(=O)N2CCN(c3ccc(-c4ccccc4F)cc3)CC2)C1		1200	IC50 [4]: Not Active
COc1ccc(-c2ccc(N3CCN(C(=O)CN4CC[C@@H](C(=O)Nc5ccc(O)c(Cl)c5)C4)CC3)cc2)cc1	50000	2300	
O=C(Nc1ccc(O)c(Cl)c1)[C@@H]1CCN(CC(=O)N2CCN(c3ccc(-c4cccs4)cc3)CC2)C1	20000	2500	
O=C(Nc1ccc(O)c(Cl)c1)[C@@H]1CCN(CC(=O)N2CCN(c3ccc(-c4cnco4)cc3)CC2)C1	12000	1000	
O=C(Nc1ccc(O)c(Cl)c1)[C@@H]1CCN(CC(=O)N2CCN(c3ccc(-c4cncnc4)cc3)CC2)C1	1800	73	
COc1ncc(-c2ccc(N3CCN(C(=O)CN4CC[C@@H](C(=O)Nc5ccc(O)c(Cl)c5)C4)CC3)cc2)cn1	2670	71	
O=C(Nc1ccc(O)c(Cl)c1)[C@@H]1CCN(CC(=O)N2CCN(c3ccc(-c4nccs4)cc3)CC2)C1	9340	300	
CC(=O)c1ccc(N2CCN(C(=O)CN3CC[C@@H](C(=O)Nc4ccc(O)cc4)C3)CC2)cc1	6000		

Now from value to molecule, other results behind:

IC50 ([4]; read-out: IC50) [nM]	IC50 [5] [nM]	SMILES	also measured
410	20	O=C(Nc1ccc(O)c(Cl)c1)[C@@H]1CCN(CC(=O)N2CCN(c3ccc(-c4ncccn4)cc3)CC2)C1	
100	5	CCc1cnc(-c2ccc(N3CCN(C(=O)CN4CC[C@@H](C(=O)Nc5ccc(O)c(Cl)c5)C4)CC3)cc2)nc1	
1760	36	O=C(Nc1ccc(O)c(Cl)c1)[C@@H]1CCN(CC(=O)N2CCN(c3ccc(-c4ncc(F)cn4)cc3)CC2)C1	
130	14	O=C(Nc1ccc(O)c(Cl)c1)[C@@H]1CCN(CC(=O)N2CCN(c3ccc(-c4cnccn4)cc3)CC2)C1	
100	5	O=C(Nc1ccc(O)c(C(F)(F)F)c1)[C@@H]1CCN(CC(=O)N2CCN(c3ccc(-c4ncccn4)cc3)CC2)C1	
1760	36	O=C(Nc1ccc(O)c(C2CC2)c1)[C@@H]1CCN(CC(=O)N2CCN(c3ccc(-c4ncccn4)cc3)CC2)C1	
1800	73	CC(C)c1cc(NC(=O)[C@@H]2CCN(CC(=O)N3CCN(c4ccc(-c5ncccn5)cc4)CC3)C2)ccc1O	
2670	71	O=C(Nc1ccc(O)c(F)c1)[C@@H]1CCN(CC(=O)N2CCN(c3ccc(-c4ncccn4)cc3)CC2)C1	
